Measurements reported in patent US20070141203A1, “Beverages containing water-soluble vitamin E” (priority 2003, published 2007).

Key:
[1] = Turbidity of aqueous dispersions and solutions of vitamin E-containing components in demineralized water (Hach turbidimeter Model Ratio/XR); type: physicochemical; details: 150 +/- 5 ppm in demineralized water; for Turbidity (Initially doped water): initial; for Turbidity (6 wks after doping): six weeks at ambient temperature
Description: Preparation of aqueous dispersions and solutions of vitamin E-containing components.
(§1) Sample 1: Vitamin E oil (0.15 g) was added to 1000 g of demineralized water. The mixture was homogenized for approximately 60 minutes using a Gifford-Wood homogenizer, Model 1 L form Greerco Corporation. The sample was very cloudy. The turbidity of the sample was measured using a Hach turbidimeter Model Ratio/XR. The turbidity of the demineralized water was also measured prior to addition of the vitamin E. The sample was stored at ambient temperature for six weeks. […] The sample was shaken well and the turbidity measured.
(§2) Sample 2: Vitamin E acetate oil (0.25 g) from Sigma-Aldrich was added to 1681 g of demineralized water. […] The turbidity of the dispersion was measured and then again after storage for six weeks at ambient temperature.
(§3) Sample 3: Vitamin E succinate powder (0.27 g) from Sigma-Aldrich was added to 1792 g of demineralized water. The mixture was homogenized for approximately 60 minutes. […] The turbidity of the dispersion was measured and then again after storage for six weeks at ambient temperature.
(§4) This solution was stirred at ambient temperature using a magnetic stirrer for several minutes. […] The turbidity of the solution was measured and then measured again after storage at ambient temperature for six weeks.
(§5) Sample 6: To 1790 g of demineralized water was added 0.27 g of a mixture consisting of d,l-α-tocopheryl acetate, modified food starch, and silica. This product is commercially available from Roche Vitamins, Inc., under the name “Dry Vitamin E 15% CC”. The aqueous mixture was agitated for about thirty minutes using a magnetic stirrer. […] The turbidity of the solution was measured and then re-measured after storage for six weeks at ambient temperature.
(§6) Sample 7: To 1802 g of demineralized water was added 0.27 g of a mixture consisting of d-α-tocopheryl acetate, Polysorbate 60, and ethyl alcohol. This product is commercially available from ADM under the name “E 230 Clear®”. The mixture was agitated for about ten minutes using a magnetic stirrer. […] The turbidity of the solution was measured and then re-measured after storage for six weeks at ambient temperature.

[2] = Visual appearance / dissolution of vitamin E-containing components in demineralized water, on preparation and during storage; type: physicochemical; details: about 150 ppm in demineralized water; for Appearance / dissolution on preparation: after homogenizing or stirring; for Appearance during / after storage: six weeks at ambient temperature
Description: as §1, §2, §3, §4, §5, §6

Row | SMILES | Turbidity (Initially doped water) [1] [NTU] | Turbidity (6 wks after doping) [1] [NTU] | Appearance / dissolution on preparation [2] | Appearance during / after storage [2]
1 | Cc1c(C)c2c(c(C)c1O)CC[C@@](C)(CCC[C@H](C)CCC[C@H](C)CCCC(C)C)O2 [Sample 1, d-α-Tocopherol] | 55 | 68 | very cloudy | an immiscible layer of oil formed on top of the water
2 | CC(=O)Oc1c(C)c(C)c2c(c1C)CC[C@@](C)(CCC[C@H](C)CCC[C@H](C)CCCC(C)C)O2 [Sample 2, d-α-Tocopherol acetate] | 52 | 61 | some immiscible oil droplets remained on the surface of the water | Immiscible oil droplets were still on the surface of the water
3 | Cc1c(C)c2c(c(C)c1OC(=O)CCC(=O)O)CCC(C)(CCCC(C)CCCC(C)CCCC(C)C)O2 (stereo not drawn) [Sample 3, d,l-α-Tocopherol succinate] | 8 | 22 | A small amount of powder continued to float on the surface of the water | A small amount of powder continued to reside on the surface of the water
